Measurements taken from patent US12371405B1, “Isoindol-sulfilimine compound and use as a sigma-2 receptor inhibitor thereof” (SHANGHAI UNIVERSITY OF MEDICINE AND HEALTH SCIENCES, priority 2024, dated 2025).

What was measured:
sigma-1 receptor = sigma-1 receptor (Homo sapiens, UniProt Q99720); assay: Sigma1 binding assay (3H-DTG radioligand, cell membrane); details: sigma-1R cell membrane, 2 hours at room temperature; for IC50: read-out: Sigma1 Binding Assay Summary IC50; for Ki: read-out: Sigma1 Binding Assay Summary Ki
Method: (§1) The pharmacodynamic test methods employed in this embodiment are those known to those skilled in the art; the sigma-2 receptor inhibitory activity assay kit employed in this embodiment is commercially available to those skilled in the art. sigmal/sigma-2 receptor affinity activity test:
(§2) In a 96-well plate, eight 4-fold dilutions of the test and reference compounds were made, and 1 μL of each compound was added to each well, and the wells were rearranged. The reference compound Haloperidol was added at a starting concentration of 1 μM, 1 μL of DMSO was added to the high signal control wells (High control), and 1 μL of Haloperidol was added to the low signal control wells (Low control) at a concentration of 200 μM (final concentration of 1 μM), and 100 μL of desired concentration of sigma-1R or sigma-2R cell membrane, diluted in 50 mM Tris-HCl (pH 7.4, Sigma, Cat: T1503-1 KG) was added to each well and 100 μL of desired concentration of 3H-DTG diluted in 50 mM Tris-HCl (pH 7.4) was added to each well, the 96-well plate was sealed, and incubated for 2 hours at room temperature on a shaker at 300 rpm. Simultaneously, GF/C filter plates (PerkinElmer, Cat: NET986250UC) were soaked with 0.3% PEI (Poly ethyleneimine, Sigma, Cat: P3143). After incubation, the cells were collected onto GF/C filter plates with a cell collector (PerkinElmer, model: C961961), washed 4 times with 50 mM Tris-HCl (pH 7.4) wash buffer, and then dried in an oven at 50° C. for 1 h. The bottom of the dried GF/C filter plates were sealed with a membrane, and 50 μL of scintillation solution was added into each well and sealed, and the cells were read by using a Microbeta (PerkinElmer, model: 2450 Microplate Counter). The percentage of activity was calculated using Microsoft Excel software with the formula: % Activity=100×(Sample RawValue−High Control Average)/(Low Control Average-High Control Average), using GraphPad Prism 5 data analysis software. The Dose-response-Stimulation-log [antagonist] vs. response-Variable slope model was selected for fitting analysis to obtain the IC50 value of each tested sample, and the results are shown in Table 1.

sigma-2 receptor [1] = biological target: T1, sigma-2 receptor (Homo sapiens, UniProt Q5BJF2); assay: Sigma 2 binding assay (3H-DTG radioligand, cell membrane); details: sigma-2R cell membrane, 2 hours at room temperature; for IC50: read-out: Sigma 2 Binding Assay Summary IC50; for Ki: read-out: Sigma 2 Binding Assay Summary Ki
Method: as §1, §2

[2] = cited from earlier work
sigma-2 receptor [3] = biological target: T1, sigma-2 receptor; details: cited from earlier work
[4] = tested on: cerebrospinal fluid β-amyloid (aβ); details: at 1 h after administration; cited from earlier work

sigma-1 receptor, sequence (Q99720 whole entry): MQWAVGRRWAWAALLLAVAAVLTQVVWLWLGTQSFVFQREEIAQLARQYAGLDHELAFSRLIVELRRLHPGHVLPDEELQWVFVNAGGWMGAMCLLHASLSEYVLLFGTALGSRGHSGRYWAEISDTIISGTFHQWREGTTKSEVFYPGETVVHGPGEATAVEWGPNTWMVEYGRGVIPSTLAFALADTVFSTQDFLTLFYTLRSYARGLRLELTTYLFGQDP
T1 sequence (Q5BJF2 whole entry, species assumed): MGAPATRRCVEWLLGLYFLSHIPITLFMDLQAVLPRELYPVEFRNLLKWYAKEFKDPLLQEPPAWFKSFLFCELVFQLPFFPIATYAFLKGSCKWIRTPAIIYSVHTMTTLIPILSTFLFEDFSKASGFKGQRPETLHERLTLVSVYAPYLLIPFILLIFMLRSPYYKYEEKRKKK

SMILES | IC50 (sigma-1 receptor) | Ki (sigma-1 receptor) | IC50 (sigma-2 receptor [1]) | Ki (sigma-2 receptor [1]) | oral bioavailability [2] | sigma-1 and sigma-2 receptor selectivity (sigma-2 receptor [3]) | concentration of cerebrospinal fluid β-amyloid (aβ) [4]
CCCC(=O)N=S(=O)(CC)c1ccc2c(c1)CN(C(C)(C)CCc1ccc(O)c(OC(C)(C)C)c1)C2 (stereo not shown) [Compound 6, N-((2-(4-(3-(tert-butoxy)-4-hydroxyphenyl)-2-methylbutan-2-yl)isoindol-5-yl)(ethyl)(oxo)-26-thioimido) butyramide] | > 5000 nM | > 5000 nM | > 500 nM | > 500 nM | – | – | –
CCC(=O)N=S(=O)(CC)c1ccc2c(c1)CN(C(C)(C)CCc1ccc(O)c(OC(C)(C)C)c1)C2 (stereo not shown) [Compound 5, N-((2-(4-(3-(tert-butoxy)-4-hydroxyphenyl)-2-methylbutan-2-yl)isoindol-5-yl)(ethyl)(oxo)-16-thioimido) propionamide] | > 1000 nM | > 1000 nM | > 100 nM | > 100 nM | – | – | –
CCS(=N)(=O)c1ccc2c(c1)CN(C(C)(C)CCc1ccc(O)c(OC(C)(C)C)c1)C2 (stereo not shown) [Compound 17] | > 100 nM | > 100 nM | < 100 nM | < 100 nM | – | – | –
CC(C)(C)Oc1cc(CCC(C)(C)N2Cc3ccc(S(=N)(=O)CF)cc3C2)ccc1O (stereo not shown) [Compound 20] | > 100 nM | > 100 nM | < 100 nM | < 100 nM | – | – | –
CCC(=O)N=S(C)(=O)c1ccc2c(c1)CN(C(C)(C)CCc1ccc(O)c(OC(C)(C)C)c1)C2 (stereo not shown) [Compound 2, N-((2-(4-(3-(tert-butoxy)-4-hydroxyphenyl)-2-methylbutan-2-yl)isoindol-5-yl)(methyl)(oxo)-26-thioimido) propionamide] | > 1000 nM | > 1000 nM | > 100 nM | > 100 nM | – | – | –
CC(=O)N=S(=O)(CCCCF)c1ccc2c(c1)CN(C(C)(C)CCc1ccc(O)c(OC(C)(C)C)c1)C2 (stereo not shown) [Compound 15, N-((2-(4-(3-(tert-butoxy)-4-hydroxyphenyl)-2-methylbutan-2-yl)isoindol-5-yl)(fluoro-butyl)(oxo)-26-thioimido)acetamide] | > 5000 nM | > 5000 nM | > 500 nM | > 500 nM | – | – | –
CCCS(=O)(=NC(=O)CC)c1ccc2c(c1)CN(C(C)(C)CCc1ccc(O)c(OC(C)(C)C)c1)C2 (stereo not shown) [Compound 8, N-((2-(4-(3-(tert-butoxy)-4-hydroxyphenyl)-2-methylbutan-2-yl)isoindol-5-yl)(propyl)(oxo)-26-thioimido) propionamide] | > 5000 nM | > 5000 nM | > 500 nM | > 500 nM | – | – | –
CC(C)(C)Oc1cc(CCC(C)(C)N2Cc3ccc(S(=N)(=O)CCCF)cc3C2)ccc1O (stereo not shown) [Compound 21] | > 5000 nM | > 5000 nM | > 500 nM | > 500 nM | – | – | –
CCCS(=N)(=O)c1ccc2c(c1)CN(C(C)(C)CCc1ccc(O)c(OC(C)(C)C)c1)C2 (stereo not shown) [Compound 18] | > 5000 nM | > 5000 nM | > 500 nM | > 500 nM | – | – | –
CCS(=O)(=NC(C)=O)c1ccc2c(c1)CN(C(C)(C)CCc1ccc(O)c(OC(C)(C)C)c1)C2 (stereo not shown) [Compound 4, N-((2-(4-(3-(tert-butoxy)-4-hydroxyphenyl)-2-methylbutan-2-yl)isoindol-5-yl)(ethyl)(oxo)-26-thioimido)acetamide] | > 1000 nM | > 1000 nM | > 100 nM | > 100 nM | – | – | –
CCCCS(=N)(=O)c1ccc2c(c1)CN(C(C)(C)CCc1ccc(O)c(OC(C)(C)C)c1)C2 (stereo not shown) [Compound 19] | > 1000 nM | > 1000 nM | > 100 nM | > 100 nM | – | – | –
CCCCS(=O)(=NC(=O)CC)c1ccc2c(c1)CN(C(C)(C)CCc1ccc(O)c(OC(C)(C)C)c1)C2 (stereo not shown) [Compound 11, N-((2-(4-(3-(tert-butoxy)-4-hydroxyphenyl)-2-methylbutan-2-yl)isoindol-5-yl)(butyl)(oxo)-26-thioimido) propionamide] | > 5000 nM | > 5000 nM | > 500 nM | > 500 nM | – | – | –
CC(=O)N=S(=O)(CF)c1ccc2c(c1)CN(C(C)(C)CCc1ccc(O)c(OC(C)(C)C)c1)C2 (stereo not shown) [Compound 13, N-((2-(4-(3-(tert-butoxy)-4-hydroxyphenyl)-2-methylbutan-2-yl)isoindol-5-yl)(fluoromethyl)(oxo)-26-thioimido)acetamide] | > 1000 nM | > 1000 nM | > 100 nM | > 100 nM | – | – | –
CCCCS(=O)(=NC(C)=O)c1ccc2c(c1)CN(C(C)(C)CCc1ccc(O)c(OC(C)(C)C)c1)C2 (stereo not shown) [Compound 10] | > 5000 nM | > 5000 nM | > 500 nM | > 500 nM | – | – | –
CCCCS(=O)(=NC(=O)CCC)c1ccc2c(c1)CN(C(C)(C)CCc1ccc(O)c(OC(C)(C)C)c1)C2 (stereo not shown) [Compound 12, N-((2-(4-(3-(tert-butoxy)-4-hydroxyphenyl)-2-methylbutan-2-yl)isoindol-5-yl)(butyl)(oxo)-26-thiimido) butyramide] | > 5000 nM | > 5000 nM | > 500 nM | > 500 nM | – | – | –
CC(=O)N=S(C)(=O)c1ccc2c(c1)CN(C(C)(C)CCc1ccc(O)c(OC(C)(C)C)c1)C2 (stereo not shown) [Compound 1, N-((2-(4-(3-(tert-butoxy)-4-hydroxyphenyl)-2-methylbutan-2-yl)isoindol-5-yl)(methyl)(oxo)-λ6-thioimido)acetamide] | > 1000 nM | > 1000 nM | > 100 nM | > 100 nM | – | – | –
CCCC(=O)N=S(=O)(CCC)c1ccc2c(c1)CN(C(C)(C)CCc1ccc(O)c(OC(C)(C)C)c1)C2 (stereo not shown) [Compound 9, N-((2-(4-(3-(tert-butoxy)-4-hydroxyphenyl)-2-methylbutan-2-yl)isoindol-5-yl)(propyl)(oxo)-26-thioimido) butanamide] | > 5000 nM | > 5000 nM | > 500 nM | > 500 nM | – | – | –
CC(C)(C)Oc1cc(CCC(C)(C)N2Cc3ccc(S(C)(=O)=O)cc3C2)ccc1O [CT1812] | – | – | – | – | poor | poor | increase
CC(C)(C)Oc1cc(CCC(C)(C)N2Cc3ccc(S(C)(=N)=O)cc3C2)ccc1O (stereo not shown) [Compound 16] | > 100 nM | > 100 nM | < 100 nM | < 100 nM | – | – | –
CCCS(=O)(=NC(C)=O)c1ccc2c(c1)CN(C(C)(C)CCc1ccc(O)c(OC(C)(C)C)c1)C2 (stereo not shown) [Compound 7, N-((2-(4-(3-(tert-butoxy)-4-hydroxyphenyl)-2-methylbutan-2-yl)isoindol-5-yl)(propyl)(oxo)-26-thioimino)acetamide] | > 5000 nM | > 5000 nM | > 500 nM | > 500 nM | – | – | –
CCCC(=O)N=S(C)(=O)c1ccc2c(c1)CN(C(C)(C)CCc1ccc(O)c(OC(C)(C)C)c1)C2 (stereo not shown) [Compound 3, N-((2-(4-(3-(tert-butoxy)-4-hydroxyphenyl)-2-methylbutan-2-yl)isoindol-5-yl)(methyl)(oxo)-26-thioimido) butanamide] | > 5000 nM | > 5000 nM | > 500 nM | > 500 nM | – | – | –
CC(=O)N=S(=O)(CCCF)c1ccc2c(c1)CN(C(C)(C)CCc1ccc(O)c(OC(C)(C)C)c1)C2 (stereo not shown) [Compound 14] | > 5000 nM | > 5000 nM | > 500 nM | > 500 nM | – | – | –
CC(C)(C)Oc1cc(CCC(C)(C)N2Cc3ccc(S(=N)(=O)CCCCF)cc3C2)ccc1O (stereo not shown) [Compound 22] | > 5000 nM | > 5000 nM | > 500 nM | > 500 nM | – | – | –
